Holding throughout (type): cell-based
One assay addresses T1, GluD2-A654T (Rattus norvegicus, UniProt Q63226, A654T).
T1 construct: expressed in transfected cells; host or cells: Xenopus laevis oocytes injected with cRNA
T1 sequence (Q63226 24-1007 A654T): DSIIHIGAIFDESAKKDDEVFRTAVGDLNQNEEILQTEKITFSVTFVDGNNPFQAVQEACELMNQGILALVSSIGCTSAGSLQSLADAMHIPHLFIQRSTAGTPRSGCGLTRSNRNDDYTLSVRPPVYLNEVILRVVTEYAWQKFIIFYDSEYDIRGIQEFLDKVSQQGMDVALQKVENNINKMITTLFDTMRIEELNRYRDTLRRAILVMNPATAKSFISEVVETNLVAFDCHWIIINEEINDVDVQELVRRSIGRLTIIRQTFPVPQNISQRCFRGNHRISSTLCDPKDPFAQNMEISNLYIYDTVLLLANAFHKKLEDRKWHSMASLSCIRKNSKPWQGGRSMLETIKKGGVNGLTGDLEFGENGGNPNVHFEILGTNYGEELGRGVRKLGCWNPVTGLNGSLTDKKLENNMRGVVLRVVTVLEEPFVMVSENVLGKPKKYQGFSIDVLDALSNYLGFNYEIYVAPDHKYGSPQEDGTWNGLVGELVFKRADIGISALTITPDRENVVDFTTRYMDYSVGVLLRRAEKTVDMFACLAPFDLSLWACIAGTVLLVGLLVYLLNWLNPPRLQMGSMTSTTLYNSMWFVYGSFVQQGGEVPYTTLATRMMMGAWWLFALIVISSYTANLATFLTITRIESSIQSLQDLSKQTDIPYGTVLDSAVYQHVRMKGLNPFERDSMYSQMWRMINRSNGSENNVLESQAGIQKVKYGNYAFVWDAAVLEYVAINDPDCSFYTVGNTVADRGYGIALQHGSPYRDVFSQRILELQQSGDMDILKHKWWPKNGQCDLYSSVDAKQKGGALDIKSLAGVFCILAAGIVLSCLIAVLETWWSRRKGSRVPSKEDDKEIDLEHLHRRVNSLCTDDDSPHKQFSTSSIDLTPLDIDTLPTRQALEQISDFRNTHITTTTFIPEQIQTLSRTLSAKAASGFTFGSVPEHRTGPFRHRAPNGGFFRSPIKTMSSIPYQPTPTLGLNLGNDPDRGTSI
Put plainly: TEVC of constitutive current, Xenopus oocytes expressing GluD2-A654T (lurcher).

Another assay addresses T2, GluD2-A654D (Rattus norvegicus, UniProt Q63226, A654D).
T2 construct: expressed in transfected cells; host or cells: Xenopus laevis oocytes injected with cRNA
T2 sequence (Q63226 24-1007 A654D): T1 sequence (Q63226 24-1007 A654T) with T631D
Put plainly: TEVC of constitutive current, Xenopus oocytes expressing GluD2-A654D.

For a further assay, the target named is T3, GluD2-L656V (Rattus norvegicus, UniProt Q63226, L656V).
T3 construct: expressed in transfected cells; host or cells: Xenopus laevis oocytes injected with cRNA
T3 sequence (Q63226 24-1007 L656V): T1 sequence (Q63226 24-1007 A654T) with T631A, L633V
Put plainly: TEVC of constitutive current, Xenopus oocytes expressing GluD2-L656V.

The mark [1] stands for this setting: inhibition of constitutive current, read-out: Memantine IC50.
[2] abbreviates: 10 mM D-serine, positive = increase, negative = decrease of activity.
[3] abbreviates: percent of constitutive leak current (NMDG+/Na+ difference current).
The mark [4] stands for this setting: 100 μM pentamidine, positive = increase, negative = decrease of activity.
Where [5] appears, read: normalized to NMDG+ − Na+ difference current.
The mark [6] stands for this setting: potentiation of constitutive current, read-out: Ca2+ EC50 [95% CI].

Substitutions are numbered along the chain they refer to. Entries after “also recorded” stand apart in the source; their conditions may differ. Like-named read-outs stand apart in the source and are kept apart here.

Regarding `CC12CC3CC(C)(C1)CC(N)(C3)C2` [Memantine, memantine], the half-maximal inhibitory concentration (IC50) (commonly the concentration that gives 50% inhibition) on GluD2-A654T (setting [1]) was 89 µM; on GluD2-A654D (setting [1]), 55 µM.
For the molecule `N[C@H](CO)C(=O)O` [D-serine], the “Reduction of maximum possible activity (Na+ −NMDG+ difference current) by D-serine” value at GluD2-L656V (10 mM D-serine) and on GluD2-A654T (10 mM D-serine) was ~ 50% each time. Further, the “D-Serine effect (Baseline −10 mM D-Serine)” value was −460 ± 53 (12) nA at GluD2-L656V (setting [2]), −1000 ± 130 (14) nA at GluD2-A654T (setting [2]) and −29 ± 10 (14) nA on GluD2-A654D (setting [2]). The “D-serine % Max (NMDG+ − Na+) Mean ± SEM” value on GluD2-L656V (setting [3]) is given as 62 ± 3.2 (14) %; on GluD2-A654T (setting [3]), 51 ± 1.3 (32) %; at GluD2-A654D (setting [3]), 85 ± 2.6 (15) %. Further, the “D-serine Hill slope” value on GluD2-A654T (1 mM Ca2+, Fig. S7B) is given as 2.5. For the same molecule, the “D-serine Maximum” value on GluD2-A654T (1 mM Ca2+, Fig. S7B) is 73%. In addition, the “Effect on constitutive current, in words” value at GluD2-A654D was “little effect; also recorded: near complete loss of D-serine potency”.
As to `N=C(N)c1ccc(OCCCCCOc2ccc(C(=N)N)cc2)cc1` [Pentamidine, pentamidine], the entries for the “Pentamidine effect (Baseline −100 μM Pentamidine)” value on GluD2-L656V (setting [4]), at GluD2-A654T (setting [4]) and at GluD2-A654D (setting [4]) were −640 ± 190 (12) nA, −930 ± 130 (14) nA and −700 ± 160 (14) nA, respectively. The half-maximal inhibitory concentration (IC50) on GluD2-L656V (read-out: Pentamidine IC50) is 10 µM; on GluD2-A654T (read-out: Pentamidine IC50), 9.6 µM; on GluD2-A654D (read-out: Pentamidine IC50) it was 3.7 µM.
As to `[Ca+2]` [Ca^2+], the figures for the “Ca2+ % Max (NMDG+ − Na+) Mean ± SEM” value on GluD2-L656V (setting [5]), on GluD2-A654T (setting [5]) and at GluD2-A654D (setting [5]) were 260 ± 9.9 (11) %, 299 ± 5.8 (32) % and 82 ± 10 (12) %, respectively. Besides, the EC50 (commonly the midpoint of the concentration-response curve) is 170 µM at GluD2-L656V (setting [6]); 100 to 400 µM at GluD2-L656V (read-out: Ca2+ potentiation EC50); 150 µM on GluD2-A654T (setting [6]); 170 µM on GluD2-A654D (modulation of constitutive current, inhibited by Ca2+ (not potentiated), read-out: Ca2+ EC50 [95% CI]). Also, the “Ca2+ EC50 A654T/EC50 variant” value on GluD2-L656V (ratio) amounted to 0.88; on GluD2-A654T (ratio) it was 1.0; at GluD2-A654D (ratio) it was 0.88. Besides, on GluD2-A654T (Hill fit, Fig. S7A), the “Ca2+ EC50 of the relation Ca2+ concentration vs D-serine IC50” value was 590 µM. Besides, the “Hill slope of the relation Ca2+ concentration vs D-serine IC50” value at GluD2-A654T (Hill fit, Fig. S7A) came out at 1.1. Besides, at GluD2-A654D, the “Effect on constitutive current, in words” value was “weak inhibitor; also recorded: modestly inhibited”.
